Entries after “also recorded” stand apart in the source; their conditions may differ.
Legend:
EphB2-His-Fc = experiment: single-protein counter ELISA; conditions: 5 μM
Procedure: The 32 hits were then subjected to ELISA in which EphB1-Fc was first immobilized in 96 well Protein A plates, then soluble EB2-His was added with hit compound in triplicate, again at 5 μM. After 2 hr at RT to allow EB2-His binding to EphB1-Fc, wells were washed, incubated with nickel-activated horseradish peroxidase (HisProbe-HRP) to detect bound EB2-His protein, washed, and then incubated with ELISA Pico Chemiluminescent Substrate (both from Thermo-Fisher) before being read in a luminometer. A single-protein counter ELISA using the dual-tagged EphB2-His-Fc ectodomain protein was also run. […] For simplicity, we call this compound A20.

[1] = tested on: DH neurons in the spinal cord; experiment: dorsal horn neuron activation (Trap2/Ai9) after CFA; assay type: in vivo, mouse; conditions: listed as A20
Procedure: FIG. 65 depicts development of a quantitative fluorescent method to assess the activation of DH neurons in the spinal cord following a chronic, […]. The left hind paws of EphB1+/+ wild-type, EphB1+/− heterozygous, and EphB1−/− homozygous mutant mice that also contained the Trap2/CreERT2 driver and the Ai9/tdTomato reporter were injected once with CFA to induce inflammatory pain. Four hours later, mice were then injected IP with 4-hydroxy-tamoxifen (4-OHT, 40 mg/kg in sunflower seed oil) to activate Cre recombinase and permanently label with red fluorescence the neurons that were activated during the short window of time (~8 hr) until the 4-OHT is degraded. Fourteen days later, animals were perfused with 4% paraformaldehyde dissolved in PBS and then […] thick vibratome serial sections of the lumbar spinal cord were obtained, mounted, and viewed under fluorescence microscopy to identify red labeled neurons in the superficial dorsal horn of the spinal cords that were activated between ~4-12 hr after the CFA induction of inflammatory pain. Superficial red neurons were counted on the left (injured) and right (uninjured) side dorsal horns (boxed areas) from 8-12 serial sections along the span of lumbar cord of each animal. […]

EphrinB3-EphB2 = EphrinB3-EphB2 (Homo sapiens, UniProt P29323); experiment: Octet, immobilized human EphrinB3 binding to human EphB2
Chain of EphrinB3-EphB2 (P29323 19-543 limits assumed): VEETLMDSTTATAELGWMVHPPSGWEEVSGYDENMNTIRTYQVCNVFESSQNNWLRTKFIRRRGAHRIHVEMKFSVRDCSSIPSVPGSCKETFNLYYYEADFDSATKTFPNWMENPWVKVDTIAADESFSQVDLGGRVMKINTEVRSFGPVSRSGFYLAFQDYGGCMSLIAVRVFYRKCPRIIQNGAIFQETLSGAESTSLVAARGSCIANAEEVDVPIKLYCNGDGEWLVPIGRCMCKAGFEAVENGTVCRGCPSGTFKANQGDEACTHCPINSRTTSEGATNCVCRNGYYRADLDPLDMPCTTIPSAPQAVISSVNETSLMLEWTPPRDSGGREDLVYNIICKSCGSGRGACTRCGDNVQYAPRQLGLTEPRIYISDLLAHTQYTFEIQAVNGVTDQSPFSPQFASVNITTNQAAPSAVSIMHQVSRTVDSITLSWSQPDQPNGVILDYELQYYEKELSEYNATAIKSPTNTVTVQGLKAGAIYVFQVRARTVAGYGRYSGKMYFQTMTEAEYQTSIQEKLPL
Procedure: Studies were conducted to confirm that A20 chemicals can effectively target the human Eph/Ephrin proteins. Octet system was used to first characterize the biophysical interactions of the human B class Eph and Ephrin proteins, and then was tested to assess how A20 may disrupt the interactions. Since the human and rodent proteins are highly conserved, and essentially identical, with EphB2 sharing 99.5% identity between human and mouse, with only 5 of ~1,000 amino acids different, any species-specific differences were not anticipated. Therefore, commercially available human EphrinB1-Fc (EB1), EphrinB2-Fc (EB2), and EphrinB3-Fc (EB3) ectodomain proteins were sparsely immobilized onto biosensors and then exposed to 50 nM of soluble human EphB1-His, EphB2-His, and EphB4-His ectodomains for 800 sec association and 1,000 sec dissociation steps with a total of nine different interactions analyzed. In the absence of A20 chemical, the immobilized human EphrinB proteins bound to their appropriate human EphB target proteins; with EphrinB1 only bound EphB1 and EphB2, EphrinB2 bound all three EphB1, EphB2, and EphB4, and EphrinB3 only bound EphB1 and EphB2 (FIG. 19A-19B).
Addition of compound also altered dissociation kinetics. […] This is referred to as the “unsurmountable” component of the Eph-Ephrin interaction (FIG. 21C). Additionally, AUC data was graphed for these runs (FIG. 21D). […]

Oc1c(Br)cc(CN2CCOCC2)c2cccnc12 [Compound 5, 7-bromo-5-(morpholinomethyl)quinolin-8-ol]
counter ELISA signal (EphB2-His-Fc): had no effect on signal in the single-protein ELISA
DH neuron activation [1]: significantly fewer labeled neurons in the injured side; also recorded: dramatically reduced DH neuron activation
inhibition at 1 µM (EphrinB3-EphB2; EB3-EphB2, A20, read-out: reduction of tetramers): ~45%
IC (maximum) (EphrinB3-EphB2; read-out: concentration producing maximum inhibition): 1 µM

Reference: US20260374739A1, “SMALL MOLECULAR WEIGHT CHEMICAL COMPOUND TO ANTAGONIZE EPH-EPHRIN TETRAMERIZATION AND INHIBIT BIDIRECTIONAL SIGNALING” (THE BOARD OF REGENTS OF THE UNIVERSITY OF TEXAS SYSTEM, priority 2022, published 2026)
